The values below come from patent US5411707A, “Vacuum extractor incorporating a condenser column” (priority 1994, dated 1995).

Values joined by “and” are separate entries in the source; they are usually repeats but may differ in a detail not shown here. Equal entries are not always repeated.

The conditions of one data set: in H2O; cited from earlier work.
Regarding `Clc1cccc(Cl)c1` [1,3-Dichlorobenzene], the “SOLUBIL. IN H2O” value was 11000 PPM and 10000 PPM. On to `BrCBr` [Dibromomethane], for which the “SOLUBIL. IN H2O” value is on record as 11500 PPM. `C=CC#N` [Acrylonitrile]: the “SOLUBIL. IN H2O” value was 73000 PPM. Turning to `ClCCOCCCl` [bis(2-Chloroethyl) ether], the “SOLUBIL. IN H2O” value was 1 PPM. Regarding `CCCN(CCC)N=O` [n-Nitroso-di-n-propylamine], the “SOLUBIL. IN H2O” value was 5 PPM.

On to `c1ccc2ccccc2c1` [Naphthalene], for which the “SOLUBIL. IN H2O” value is 3400 PPM. For `C=CCCl` [Allyl chloride], the “SOLUBIL. IN H2O” value was 3600 PPM. In the case of `Nc1ccc(Cl)cc1` [4-Chloroaniline], the “SOLUBIL. IN H2O” value is listed as 5 PPM.

As to `CCC(C)c1ccccc1` (stereo not shown) [sec-butylbenzene], the “SOLUBIL. IN H2O” value is on record as 320 PPM.

On to `Cc1ccc(O)c(C)c1` [2,4-Dimethylphenol], for which the “SOLUBIL. IN H2O” value is 5 PPM. In the case of `Cc1cc(O)ccc1Cl` [4-Chloro-3-methyl phenol], the “SOLUBIL. IN H2O” value is reported as 1 PPM. Regarding `Clc1cccc(Cl)c1Cl` [1,2,3-Trichloro benzene], the “SOLUBIL. IN H2O” value is given as 1 PPM. Consider `Cc1ccccc1O` [2-Methylphenol], for which the “SOLUBIL. IN H2O” value is on record as 775000 PPM. Consider `Nc1ccccc1[N+](=O)[O-]` [2-Nitroaniline], for which the “SOLUBIL. IN H2O” value is 5 PPM.

With `OCc1ccccc1` [Benzyl alcohol], the “SOLUBIL. IN H2O” value was 80000 PPM. `C=C(C)C(=O)OC` [Methyl methacrylate]: the “SOLUBIL. IN H2O” value is recorded as 16000 PPM. Turning to `Cc1ccc(C(C)C)cc1` [para-iso-Propyl toluene], the “SOLUBIL. IN H2O” value is 1 PPM. As to `Clc1ccccc1Cl` [1,2-Dichlorobenzene], the “SOLUBIL. IN H2O” value is 10000 PPM. As to `c1ccc2c(c1)oc1ccccc12` [Dibenzofuran], the “SOLUBIL. IN H2O” value is reported as 1 PPM. In the case of `CC(C)c1ccccc1` [iso-Propylbenzene], the “SOLUBIL. IN H2O” value is listed as 5000 PPM. With `CC(C)(C)c1ccccc1` [tert-Butlybenzene], the “SOLUBIL. IN H2O” value is 290 PPM. In the case of `CC(=O)c1ccccc1` [Acetophenone], the “SOLUBIL. IN H2O” value was 5500 PPM. As for `Clc1cc(Cl)c(Cl)c(Cl)c1Cl` [Pentachlorobenzene], the “SOLUBIL. IN H2O” value is listed as 1 PPM. Consider `Oc1ccccc1Cl` [2-Chlorophenol], for which the “SOLUBIL. IN H2O” value is on record as 5 PPM. Turning to `Brc1ccccc1` [Bromobenzene], the “SOLUBIL. IN H2O” value is on record as 400 PPM. `O=NN1CCOCC1` [n-Nitrosomorpholine]: the “SOLUBIL. IN H2O” value is recorded as 1000000 PPM. For the compound `Cc1ccc(Cl)cc1` [4-Chlorotoluene], the “SOLUBIL. IN H2O” value is given as 5 PPM.

`CCCCc1ccccc1` [n-Butylbenzene]: the “SOLUBIL. IN H2O” value was 5000 PPM. Regarding `Cc1cc(C)cc(C)c1` [1,3,5-Trimethyl benzene], the “SOLUBIL. IN H2O” value is recorded as 2000 PPM. Turning to `Cc1ccccc1N` [o-Toluidine], the “SOLUBIL. IN H2O” value was 17000 PPM. As to `O=NN1CCCCC1` [n-Nitroso-piperidine], the “SOLUBIL. IN H2O” value is on record as 1000000 PPM. `CCCc1ccccc1` [n-Propylbenzene]: the “SOLUBIL. IN H2O” value is reported as 60 PPM.

Consider `Nc1ccccc1` [Aniline], for which the “SOLUBIL. IN H2O” value is 32500 PPM. For `CCOCC` [Diethyl ether], the “SOLUBIL. IN H2O” value was 60400 PPM.

The same data set, now with this note: water; cited from earlier work.
With `Cc1ccc(C)c(C)c1` [1,2,4-Trimethyl benzene], the “SOLUBIL. IN H2O” value is on record as 1 PPM. Consider `Cc1ccccn1` [2-Picoline], for which the “SOLUBIL. IN H2O” value is reported as 1000000 PPM.

For a further data set the following is noted: 1 gram cod liver oil, 200 ppb spike recovery only.
Source text: The cryotrap is placed in liquid nitrogen which is replaced as needed throughout the operation. The sample valve is placed in the load position. Samples are placed in the sample chamber and the chamber attached to the apparatus. The coolant/heat valve is adjusted so that the condenser fluid is circulating and at the desired temperature. The vacuum pump is turned on and the vacuum pump valve and sample chamber valve are opened to begin distillation/purging. After five minutes the pressure at the vacuum pump, as measured by a Pirani gauge reads about 0.1 Torr and a Pirani gauge reads less than about 250 Torr at the sample chamber. Distillation continues for another five minutes to complete distillation at which time the sample chamber pressure should be approximately 10 Torr.
Once distillation is complete, the sampling valve is adjusted to the injection position. The liquid nitrogen is removed from the cryotrap and replaced with a beaker of hot (about 90° C.) tap water. The GC/MS then begins to collect data. At this stage, the sample chamber may be removed and the apparatus prepared for another sample. If multiple samples are connected, a new sample chamber may be connected in sequence.
Take `CCC(C)=O` [2-Butanone]: the “Oil Recovery (200 ppb spike only)” value came out at 128 ± 21.5%.
